These compounds were tested on NCI-H292 lung cancer cells (assay: FDA drug screening, complete media vs cholesterol-free media with simvastatin (TABLE 2)). Conditions: NCI-H292 cells, cholesterol-free media with simvastatin 0.04 μM; cell growth value in FDA drug screen.
Format: cell-based, human
For `Nc1cc(F)ccc1NC(=O)c1ccc(CNC(=O)/C=C/c2cccnc2)cc1` [Tucidinostat], the “Cholesterol-free media + simvastatin (0.04 μM)” value was 0.5739. `CCCOc1ccc(S(=O)(=O)NCCC2CCCN2C)cc1-c1nc2c(CCC)nn(C)c2c(=O)[nH]1` (stereo not drawn) [Udenafil] was tested, and the “Cholesterol-free media + simvastatin (0.04 μM)” value was 1.921. For `Cc1onc(-c2ccccc2)c1-c1ccc(S(N)(=O)=O)cc1` [Valdecoxib], the “Cholesterol-free media + simvastatin (0.04 μM)” value was 0.9234.

Same assay, conditions: NCI-H292 cells, complete media; cell growth value in FDA drug screen
`Nc1cc(F)ccc1NC(=O)c1ccc(CNC(=O)/C=C/c2cccnc2)cc1` [Tucidinostat] was tested, and the “Complete Media” value was 0.6176. With `CCCOc1ccc(S(=O)(=O)NCCC2CCCN2C)cc1-c1nc2c(CCC)nn(C)c2c(=O)[nH]1` (stereo not drawn) [Udenafil] the “Complete Media” value was 2.002. With `Cc1onc(-c2ccccc2)c1-c1ccc(S(N)(=O)=O)cc1` [Valdecoxib] the “Complete Media” value was 0.9538.

Same assay, conditions: NCI-H292 cells, drug in cholesterol-free media with simvastatin 0.04 μM
With `CC[C@@H]1CN(C(=O)NCC(F)(F)F)C[C@@H]1c1cnc2cnc3[nH]ccc3n12` [Upadacitinib] the “Cholesterol-free media + simvastatin (0.04 μM)” value was 0.7425. With `CC(=O)OC[C@H]1O[C@@H](n2ccc(=O)[nH]c2=O)[C@H](OC(C)=O)[C@@H]1OC(C)=O` [Uridine triacetate] the “Cholesterol-free media + simvastatin (0.04 μM)” value was 1.076. In the case of `O[C@H]([C@H](O)[C@@H]1CO1)[C@H]1CO1` [VAL-083], the “Cholesterol-free media + simvastatin (0.04 μM)” value is reported as 0.879.

Same assay, conditions: NCI-H292 cells, drug in complete media
For `CC[C@@H]1CN(C(=O)NCC(F)(F)F)C[C@@H]1c1cnc2cnc3[nH]ccc3n12` [Upadacitinib], the “Complete Media” value was 0.5732. In the case of `CC(=O)OC[C@H]1O[C@@H](n2ccc(=O)[nH]c2=O)[C@H](OC(C)=O)[C@@H]1OC(C)=O` [Uridine triacetate], the “Complete Media” value is reported as 0.8641. In the case of `O[C@H]([C@H](O)[C@@H]1CO1)[C@H]1CO1` [VAL-083], the “Complete Media” value is reported as 0.7017.

Same assay, conditions: complete media minus cholesterol-free media + simvastatin; >0 enhanced anti-cancer activity, about 0 neutral, <0 antagonist
In the case of `Nc1cc(F)ccc1NC(=O)c1ccc(CNC(=O)/C=C/c2cccnc2)cc1` [Tucidinostat], the Difference is reported as 0.04. In the case of `CCCOc1ccc(S(=O)(=O)NCCC2CCCN2C)cc1-c1nc2c(CCC)nn(C)c2c(=O)[nH]1` (stereo not drawn) [Udenafil], the Difference is reported as 0.08. Compound `Cc1onc(-c2ccccc2)c1-c1ccc(S(N)(=O)=O)cc1` [Valdecoxib] has a Difference of 0.03.

Same assay, conditions: complete media vs cholesterol-free media + simvastatin (0.04 μM); >0 enhanced anti-cancer activity, about 0 neutral, <0 antagonist
`CC[C@@H]1CN(C(=O)NCC(F)(F)F)C[C@@H]1c1cnc2cnc3[nH]ccc3n12` [Upadacitinib] showed a Difference of −0.17. For `CC(=O)OC[C@H]1O[C@@H](n2ccc(=O)[nH]c2=O)[C@H](OC(C)=O)[C@@H]1OC(C)=O` [Uridine triacetate], the Difference was −0.21.

Same assay, conditions: complete media vs cholesterol-free media + simvastatin (0.04 μM); […]
`O[C@H]([C@H](O)[C@@H]1CO1)[C@H]1CO1` [VAL-083] gave a Difference of −0.18.

The compounds below were run on NCI-H292 lung cancer cells (assay: FDA drug screening, complete media vs cholesterol-free media without statin (TABLE 1)). Conditions: Complete minus Cholesterol-free; >0 enhanced anti-cancer activity, about 0 neutral, <0 antagonist.
Format: cell-based, human
Compound `CCCOc1ccc(S(=O)(=O)NCCC2CCCN2C)cc1-c1nc2c(CCC)nn(C)c2c(=O)[nH]1` (stereo not drawn) [Udenafil] has a Difference of −0.28. In the case of `Cc1onc(-c2ccccc2)c1-c1ccc(S(N)(=O)=O)cc1` [Valdecoxib], the Difference is reported as 0.02.

Same assay, conditions: Complete minus Cholesterol-free; greater than 0 enhanced anti-cancer activity, about 0 neutral, below 0 antagonists
In the case of `Nc1cc(F)ccc1NC(=O)c1ccc(CNC(=O)/C=C/c2cccnc2)cc1` [Tucidinostat], the Difference is reported as −0.51. `CC[C@@H]1CN(C(=O)NCC(F)(F)F)C[C@@H]1c1cnc2cnc3[nH]ccc3n12` [Upadacitinib] was tested, and the Difference was −0.51.

Same assay, conditions: NCI-H292 cells in cholesterol-free media without statin
`Nc1cc(F)ccc1NC(=O)c1ccc(CNC(=O)/C=C/c2cccnc2)cc1` [Tucidinostat] gave a Cholesterol-free of 1.245. In the case of `CC[C@@H]1CN(C(=O)NCC(F)(F)F)C[C@@H]1c1cnc2cnc3[nH]ccc3n12` [Upadacitinib], the Cholesterol-free is reported as 1.213.

Same assay, conditions: NCI-H292 cells in complete media
`Nc1cc(F)ccc1NC(=O)c1ccc(CNC(=O)/C=C/c2cccnc2)cc1` [Tucidinostat] showed a Complete of 0.7308. In the case of `CC[C@@H]1CN(C(=O)NCC(F)(F)F)C[C@@H]1c1cnc2cnc3[nH]ccc3n12` [Upadacitinib], the Complete is reported as 0.7003.

Same assay, conditions: NCI-H292 cells, cholesterol-free media without statin
For `CCCOc1ccc(S(=O)(=O)NCCC2CCCN2C)cc1-c1nc2c(CCC)nn(C)c2c(=O)[nH]1` (stereo not drawn) [Udenafil], the Cholesterol-free was 1.473. With `O[C@H]([C@H](O)[C@@H]1CO1)[C@H]1CO1` [VAL-083] the Cholesterol-free was 1.036.

Same assay, conditions: NCI-H292 cells, cholesterol-free media without statin, FDA drug library screen
In the case of `CC(=O)OC[C@H]1O[C@@H](n2ccc(=O)[nH]c2=O)[C@H](OC(C)=O)[C@@H]1OC(C)=O` [Uridine triacetate], the Cholesterol-free is reported as 1.055. Compound `Cc1onc(-c2ccccc2)c1-c1ccc(S(N)(=O)=O)cc1` [Valdecoxib] has a Cholesterol-free of 0.9021.

Same assay, conditions: NCI-H292 cells, complete media
Work on `CCCOc1ccc(S(=O)(=O)NCCC2CCCN2C)cc1-c1nc2c(CCC)nn(C)c2c(=O)[nH]1` (stereo not drawn) [Udenafil] yielded a Complete of 1.195. In the case of `O[C@H]([C@H](O)[C@@H]1CO1)[C@H]1CO1` [VAL-083], the Complete is reported as 0.6339.

Same assay, conditions: NCI-H292 cells, complete media, FDA drug library screen
With `CC(=O)OC[C@H]1O[C@@H](n2ccc(=O)[nH]c2=O)[C@H](OC(C)=O)[C@@H]1OC(C)=O` [Uridine triacetate] the Complete was 1.37. `Cc1onc(-c2ccccc2)c1-c1ccc(S(N)(=O)=O)cc1` [Valdecoxib] showed a Complete of 0.9224.

Same assay, conditions: complete vs cholesterol-free media; >0 enhanced anti-cancer activity, about 0 neutral, <0 antagonist
`CC(=O)OC[C@H]1O[C@@H](n2ccc(=O)[nH]c2=O)[C@H](OC(C)=O)[C@@H]1OC(C)=O` [Uridine triacetate] was tested, and the Difference was 0.32.

Same assay, conditions: complete vs cholesterol-free media; […]
`O[C@H]([C@H](O)[C@@H]1CO1)[C@H]1CO1` [VAL-083] gave a Difference of −0.40.

— patent publication US20250144067A1, “PERSONALIZED STARVATION THERAPY FOR CANCER” (Faeth Therapeutics, Inc., priority 2021, published 2025)
